{"source": "patent US8962257B2", "about": "“Methods for diagnosing heart failure and other cardiac diseases” (The Trustees of the University of Pennsylvania, priority 2010, dated 2015)", "system": "NRG-1β", "assay": "Serial plasma NRG-1β by indirect sandwich ELISA in Her-2+ breast cancer patients receiving doxorubicin and trastuzumab", "format": "in vivo, human", "details": "with Doxorubicin exposure", "description": "NRG-1β is measured from frozen, previously unthawed serum or plasma samples that had been stored at −80° C. until time of assay. An indirect sandwich enzyme-linked immunosorbent assay (ELISA) was used (NRG1-β1 Duoset ELISA development system from R&D Systems, Minneapolis, Minn.). Assay technology was adapted for human samples, and all measurements were performed at Vanderbilt University. […] Following incubation, a biotinylated goat anti-human NRG1-β1 detection antibody was added to each well, and a streptavidin-HRP system was used for detection. […] Extensive validation was performed and there was no cross-reactivity with NRG-1α isoform or epidermal growth factor.\nData were obtained at enrollment and every 3 months during anti-cancer therapy.\nNRG-1β plasma level was measured serially every 3 months during chemotherapy treatment.", "data": [{"smiles": "COc1cccc2c1C(=O)c1c(O)c3c(c(O)c1C2=O)C[C@@](O)(C(=O)CO)C[C@@H]3O[C@H]1C[C@H](N)[C@H](O)[C@H](C)O1", "note": "[Doxorubicin, doxorubicin]", "values": [{"measurement": "change in NRG-1β over time", "result": "significant decrease"}, {"measurement": "change in NRG-1β over time", "setting": "listed as doxorubicin", "result": "significant decline"}]}]}
